In US20250049817A1, “JAK INHIBITOR WITH A VITAMIN D ANALOG FOR TREATMENT OF SKIN DISEASES” (INCYTE CORPORATION, priority 2020, published 2025):

Key:
[1] = molecular target: human JAK1 (a.a. 837-1142) (Homo sapiens, UniProt P23458); experiment: In vitro JAK kinase assay (HTRF), JAK1; format: biochemical; details: 1 mM ATP
[2] = test system: human JAK1 (a.a. 837-1142); experiment: In vitro JAK kinase assay (HTRF), JAK1; format: biochemical; details: JAK2/JAK1 IC50 ratio, 1 mM ATP
keratinocyte cell line = details: concentration-dependent; read-out: IC50 for decreasing keratinocyte cell line proliferation; cited from earlier work

| SMILES | IC50 [1] | JAK2/JAK1 [2] | IC50 (keratinocyte cell line) |
| --- | --- | --- | --- |
| N#CCC(C1CCN(c2cccc(Cl)n2)C1)n1cc(-c2ncnc3[nH]ccc23)cn1 (single isomer, unassigned) [Compound 6, 3-[1-(6-chloropyridin-2-yl)pyrrolidin-3-yl]-3-[4-(7H-pyrrolo[2,3-d]pyrimidin-4-yl)-1H-pyrazol-1-yl]propanenitrile] | < 10 nM | >10 |  |
| N#CCC1(n2cc(-c3ncnc4[nH]ccc34)cn2)CN(C2CCN(C(=O)c3ccnc(C(F)(F)F)c3F)CC2)C1 [Compound 1, {1-{1-[3-Fluoro-2-(trifluoromethyl)isonicotinoyl]piperidin-4-yl}-3-[4-(7H-pyrrolo [2,3-d]pyrimidin-4-yl)-1H-pyrazol-1-yl]azetidin-3-yl}acetonitrile] | < 10 nM | >10 |  |
| N#CCC1(n2cc(-c3ncnc4[nH]ccc34)cn2)CN(C2CCN(C(=O)Nc3ccc(F)cc3C(F)(F)F)CC2)C1 [Compound 2, 4-{3-(Cyanomethyl)-3-[4-(7H-pyrrolo[2,3-d]pyrimidin-4-yl)-1H-pyrazol-1-yl]azetidin-1-yl}-N-[4-fluoro-2-(trifluoromethyl)phenyl] piperidine-1-carboxamide] | < 10 nM | >10 |  |
| N#CCC1(n2cc(-c3ncnc4[nH]ccc34)cn2)CN(C2CCN(C(=O)c3ccnc(C(F)(F)F)n3)CC2)C1 [Compound 3, [3-[4-(7H-pyrrolo[2,3-d]pyrimidin-4-yl)-1H-pyrazol-1-yl]-1-(1-{[2-(trifluoromethyl)pyrimidin-4-yl]carbonyl}piperidin-4-yl)azetidin-3-yl]acetonitrile] | < 10 nM | >10 |  |
| C[C@@H](O)c1nc2cnc3ccsc3c2n1[C@H]1CC[C@H](CC#N)OC1 [Compound 5, ((2R,5S)-5-{2-[(1R)-1-hydroxyethyl]-1H-imidazo[4,5-d]thieno[3,2-b]pyridin-1-yl}tetrahydro-2H-pyran-2-yl)acetonitrile] | < 100 nM | >10 |  |
| N#CCC(C1CCN(c2nc3cccnc3o2)C1)n1cc(-c2ncnc3[nH]ccc23)cn1 (stereo not shown) [Compound 7, 3-(1-[1,3]oxazolo[5,4-b]pyridin-2-ylpyrrolidin-3-yl)-3-[4-(7H-pyrrolo[2,3-d]pyrimidin-4-yl)-1H-pyrazol-1-yl]propanenitrile] | < 10 nM | >10 |  |
| N#CCC(CN1CCN(C(=O)c2ccc(C#N)cc2F)CC1)n1cc(-c2ncnc3[nH]ccc23)cn1 (stereo not shown) [Compound 8, 4-[(4-{3-cyano-2-[4-(7H-pyrrolo[2,3-d]pyrimidin-4-yl)-1H-pyrazol-1-yl]propyl}piperazin-1-yl)carbonyl]-3-fluorobenzonitrile] | < 10 nM | >10 |  |
| N#CCC(CN1CCN(C(=O)c2ccc(C#N)cc2F)CC1)n1ccc(-c2ncnc3[nH]ccc23)c1 (stereo not shown) [Compound 9, 4-[(4-{3-cyano-2-[3-(7H-pyrrolo[2,3-d]pyrimidin-4-yl)-1H-pyrrol-1-yl]propyl}piperazin-1-yl)carbonyl]-3-fluorobenzonitrile] | < 10 nM | >10 |  |
| N#CC[C@]1(n2cc(-c3ncnc4[nH]ccc34)cn2)C[C@H](N2CCN(C(=O)c3ccnc(C(F)(F)F)n3)CC2)C1 [Compound 10, [trans-1-[4-(7H-pyrrolo[2,3-d]pyrimidin-4-yl)-1H-pyrazol-1-yl]-3-(4-{[2-(trifluoromethyl)pyrimidin-4-yl]carbonyl}piperazin-1-yl)cyclobutyl]acetonitrile] | < 10 nM | >10 |  |
| N#CC[C@]1(n2cc(-c3ncnc4[nH]ccc34)cn2)C[C@H](N2CCC(Oc3cc(CN4CC(O)C4)cc(C(F)(F)F)n3)CC2)C1 [Compound 11, {trans-3-(4-{[4-[(3-hydroxyazetidin-1-yl)methyl]-6-(trifluoromethyl)pyridin-2-yl]oxy}piperidin-1-yl)-1-[4-(7H-pyrrolo[2,3-d]pyrimidin-4-yl)-1H-pyrazo1-1-yl]cyclobutyl}acetonitrile] | < 10 nM | >10 |  |
| N#CC[C@]1(n2cc(-c3ncnc4[nH]ccc34)cn2)C[C@H](N2CCC(Oc3cc(CN4CCC[C@H]4CO)cc(C(F)(F)F)n3)CC2)C1 [Compound 12, {trans-3-(4-{[4-{[(2S)-2-(hydroxymethyl)pyrrolidin-1-yl]methyl}-6-(trifluoromethyl)pyridin-2-yl]oxy}piperidin-1-yl)-1-[4-(7H-pyrrolo[2,3-d]pyrimidin-4-yl)-1H-pyrazol-1-yl]cyclobutyl}acetonitrile] | < 10 nM | >10 |  |
| N#CC[C@]1(n2cc(-c3ncnc4[nH]ccc34)cn2)C[C@H](N2CCC(Oc3cc(CN4CCC[C@@H]4CO)cc(C(F)(F)F)n3)CC2)C1 [Compound 13, {trans-3-(4-{[4-{[(2R)-2-(hydroxymethyl)pyrrolidin-1-yl]methyl}-6-(trifluoromethyl)pyridin-2-yl]oxy}piperidin-1-yl)-1-[4-(7H-pyrrolo[2,3-d]pyrimidin-4-yl)-1H-pyrazol-1-yl]cyclobutyl}acetonitrile] | < 10 nM | >10 |  |
| C[C@H](NC(=O)c1cc(F)c(N2CC(CC#N)(n3cc(-c4ncnc5[nH]ccc45)cn3)C2)cc1F)C(F)(F)F [Compound 16, 4-{3-(cyanomethyl)-3-[4-(7H-pyrrolo[2,3-d]pyrimidin-4-yl)-1H-pyrazol-1-yl]azetidin-1-yl]-2,5-difluoro-N-[(1S)-2,2,2-trifluoro-1-methylethyl]benzamide] | < 10 nM | >10 |  |
| N#CCC1(n2cc(-c3ncnc4[nH]ccc34)cn2)CN([C@H]2CC[C@@H](Oc3cc(CCO)nc(C(F)(F)F)n3)CC2)C1 [Compound 18, {1-(cis-4-{[6-(2-hydroxyethyl)-2-(trifluoromethyl)pyrimidin-4-yl]oxy}cyclohexyl)-3-[4-(7H-pyrrolo[2,3-d]pyrimidin-4-yl)-1H-pyrazol-1-yl]azetidin-3-yl}acetonitrile] | < 10 nM | >10 |  |
| CCNCc1cc(O[C@H]2CC[C@@H](N3CC(CC#N)(n4cc(-c5ncnc6[nH]ccc56)cn4)C3)CC2)nc(C(F)(F)F)c1 [Compound 19, {1-(cis-4-{[4-[(ethylamino)methyl]-6-(trifluoromethyl)pyridin-2-yl]oxy}cyclohexyl)-3-[4-(7H-pyrrolo[2,3-d]pyrimidin-4-yl)-1H-pyrazol-1-yl]azetidin-3-yl}acetonitrile] | < 10 nM | >10 |  |
| CC(C)(O)c1cc(O[C@H]2CC[C@@H](N3CC(CC#N)(n4cc(-c5ncnc6[nH]ccc56)cn4)C3)CC2)nc(C(F)(F)F)c1 [Compound 20, {1-(cis-4-{[4-(1-hydroxy-1-methylethyl)-6-(trifluoromethyl)pyridin-2-yl]oxy]cyclohexyl)-3-[4-(7H-pyrrolo[2,3-d]pyrimidin-4-yl)-1H-pyrazol-1-yl]azetidin-3-yl}acetonitrile] | < 10 nM | >10 |  |
| N#CCC1(n2cc(-c3ncnc4[nH]ccc34)cn2)CN([C@H]2CC[C@@H](Oc3cc(CN4CC[C@@H](O)C4)cc(C(F)(F)F)n3)CC2)C1 [Compound 21, {1-(cis-4-{[4-{[(3R)-3-hydroxypyrrolidin-1-yl]methyl}-6-(trifluoromethyl)pyridin-2-yl]oxy}cyclohexyl)-3-[4-(7H-pyrrolo[2,3-d]pyrimidin-4-yl)-1H-pyrazol-1-yl]azetidin-3-yl}acetonitrile] | < 10 nM | >10 |  |
| N#CCC1(n2cc(-c3ncnc4[nH]ccc34)cn2)CN([C@H]2CC[C@@H](Oc3cc(CN4CC[C@H](O)C4)cc(C(F)(F)F)n3)CC2)C1 [Compound 22, {1-(cis-4-{[4-{[(3S)-3-hydroxypyrrolidin-1-yl]methyl}-6-(trifluoromethyl)pyridin-2-yl]oxy}cyclohexyl)-3-[4-(7H-pyrrolo[2,3-d]pyrimidin-4-yl)-1H-pyrazol-1-yl]azetidin-3-yl}acetonitrile] | < 10 nM | >10 |  |
| C[C@@H](CO)NCc1cc(OC2CCN([C@H]3C[C@](CC#N)(n4cc(-c5ncnc6[nH]ccc56)cn4)C3)CC2)nc(C(F)(F)F)c1 [Compound 23, {trans-3-(4-{[4-({[(1S)-2-hydroxy-1-methylethyl]amino}methyl)-6-(trifluoromethyl)pyridin-2-yl]oxy}piperidin-1-yl)-1-[4-(7H-pyrrolo[2,3-d]pyrimidin-4-yl)-1H-pyrazol-1-yl]cyclobutyl}acetonitrile] | < 10 nM | >10 |  |
| C[C@@H](O)CNCc1cc(OC2CCN([C@H]3C[C@](CC#N)(n4cc(-c5ncnc6[nH]ccc56)cn4)C3)CC2)nc(C(F)(F)F)c1 [Compound 24, {trans-3-(4-{[4-({[(2R)-2-hydroxypropyl]amino}methyl)-6-(trifluoromethyl)pyridin-2-yl]oxy}piperidin-1-yl)-1-[4-(7H-pyrrolo[2,3-d]pyrimidin-4-yl)-1H-pyrazol-1-yl]cyclobutyl]acetonitrile] | < 10 nM | >10 |  |
| C[C@H](O)CNCc1cc(OC2CCN([C@H]3C[C@](CC#N)(n4cc(-c5ncnc6[nH]ccc56)cn4)C3)CC2)nc(C(F)(F)F)c1 [Compound 25, {trans-3-(4-{[4-({[(2S)-2-hydroxypropyl]amino}methyl)-6-(trifluoromethyl)pyridin-2-yl]oxy}piperidin-1-yl)-1-[4-(7H-pyrrolo[2,3-d]pyrimidin-4-yl)-1H-pyrazol-1-yl]cyclobutyl}acetonitrile] | < 10 nM | >10 |  |
| N#CC[C@]1(n2cc(-c3ncnc4[nH]ccc34)cn2)C[C@H](N2CCC(Oc3cc(CCO)cc(C(F)(F)F)n3)CC2)C1 [Compound 26, {trans-3-(4-{[4-(2-hydroxyethyl)-6-(trifluoromethyl)pyridin-2-yl]oxy}piperidin-1-yl)-1-[4-(7H-pyrrolo[2,3-d]pyrimidin-4-yl)-1H-pyrazol-1-yl]cyclobutyl]acetonitrile] | < 10 nM | >10 |  |
| C=C1/C(=C\C=C2/CCC[C@]3(C)[C@@H]([C@H](C)OCCC(C)(C)O)CC[C@@H]23)C[C@@H](O)C[C@@H]1O [maxacalcitol] |  |  | 10 to 100 nM |
| C=C1/C(=C\C=C2/CCC[C@]3(C)[C@@H]([C@H](C)CC[C@@H](O)C(C)C)CC[C@@H]23)C[C@@H](O)C[C@@H]1O [tacalcitol] |  |  | 10 to 100 nM |
